9 molecules from patent publication US9193736B2, “PDE 10a inhibitors for the treatment of type II diabetes” (Janssen Pharmaceutica, NV, priority 2013, dated 2015) can be followed below.

For series [1], the target named is Human recombinant PDE10A2 (Homo sapiens (Human), UniProt Q9Y233). Briefly: In vitro hPDE10a: human recombinant PDE10A2 scintillation proximity assay, IC50. The series is classed as biochemical. The conditions noted are these: human recombinant PDE10A2, SPA, 60 nM cAMP; read-out: hPDE10a2 IC50. The procedure, abridged:
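Purified recombinant human PDE10A2 (Ni-sepharose) was assayed by SPA, counting [3H]-AMP product captured on yttrium silicate beads added in zinc sulphate stop solution. Inhibition was expressed as % of activity without compound, with a no-enzyme low control. Repeat data points were aggregated.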
For orientation: Scintillation proximity formats need no separation of bound from free tracer.

The conditions of series [2]: rat, in vivo.
Protocol: PDE10a-Brain Permeability Assay
(§1) A. PDE10a-Perfused Brain Permeability Study Protocol
(§2) Drug administration by oral gavage, subcutaneous injection or intravenous was carried out using male Sprague Dawley rats under IACUC protocol (SH-MET3010). Male Sprague Dawley rats (Charles River) ˜300-350 g were maintained on a 4% standard rodent diet (Test Diet 5001). They are allowed ad libitum access to water and food. Room temperature was maintained at 64° F. and humidity at 30-70%.
(§3) Three animals per compound were provided a dose of 2 mg/mL in 20% HpbCD/Tris pH 8 by tail i.v. or 30 mpk p.o. or s.c. in 20% HpbCD/Tris pH 8, with PDE10a antagonists. A first blood sample was collected at 30 min via retro-orbital sinus (anesthetic by 70% CO2/30% O2) into heparinzed plasma separator tubes. The blood was centrifuged and 100 μL plasma was placed into a 96 well plate and saved on dry ice.
(§4) After the 120 min, the final blood sample was collected via retro-orbital sinus under anesthesia by IP 0.5 cc injection of a 4/1 mixture of Ketaset: AnaSed [(prepared 10 mL Ketaset (100 mg/mL Ketamine)+2.5 mL AnaSed (20 mg/mL Xylazine)]. The rats were then perfused with 400 mL heparinized saline (10,000 units/L) through the left ventricle of the heart; the brains were then removed (not including the medulla), weighed and homogenized in PBS (4 mL/g tissue). The samples were stored at −80° C. and submitted for chemical analysis of blood and brain concentrations. Endpoints of sample analysis consists of the plasma concentrations at 30 and 120 min, plus brain concentrations at 120 min.
Series [3] is described as follows: PDE10a perfused brain permeability study: plasma concentrations at 30 and 120 min, brain concentration at 120 min, brain/plasma ratio. Particulars: male, Sprague-Dawley, rat; for Kp at 2 h: brain/plasma.
Protocol: PDE10a-Brain Permeability Assay
as §1, §2, §3, §4
Series [4] addresses Rat recombinant PDE10a (rPDE10a) (Rattus norvegicus (Rat), UniProt Q9QYJ6). Briefly: In vitro assay PDE10a: rat recombinant PDE10a SPA with 3H-cAMP substrate, IC50. The series is classed as biochemical. The conditions noted are these: 60 nM cAMP, read-out: rPDE10a2 IC50. The procedure, abridged: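 Enzyme expressed in Sf9 cells via baculovirus and Ni-sepharose purified; reaction with 3H-cAMP ran 60 min at rt, stopped with PDE SPA beads. Compounds diluted in DMSO at 100-fold final concentration; blanks omitted enzyme.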

pIC50: −log10 of the molar value. Structures can show the parent of a compound that is named as a salt.

Human recombinant PDE10A2, sequence (Q9Y233 267-1055): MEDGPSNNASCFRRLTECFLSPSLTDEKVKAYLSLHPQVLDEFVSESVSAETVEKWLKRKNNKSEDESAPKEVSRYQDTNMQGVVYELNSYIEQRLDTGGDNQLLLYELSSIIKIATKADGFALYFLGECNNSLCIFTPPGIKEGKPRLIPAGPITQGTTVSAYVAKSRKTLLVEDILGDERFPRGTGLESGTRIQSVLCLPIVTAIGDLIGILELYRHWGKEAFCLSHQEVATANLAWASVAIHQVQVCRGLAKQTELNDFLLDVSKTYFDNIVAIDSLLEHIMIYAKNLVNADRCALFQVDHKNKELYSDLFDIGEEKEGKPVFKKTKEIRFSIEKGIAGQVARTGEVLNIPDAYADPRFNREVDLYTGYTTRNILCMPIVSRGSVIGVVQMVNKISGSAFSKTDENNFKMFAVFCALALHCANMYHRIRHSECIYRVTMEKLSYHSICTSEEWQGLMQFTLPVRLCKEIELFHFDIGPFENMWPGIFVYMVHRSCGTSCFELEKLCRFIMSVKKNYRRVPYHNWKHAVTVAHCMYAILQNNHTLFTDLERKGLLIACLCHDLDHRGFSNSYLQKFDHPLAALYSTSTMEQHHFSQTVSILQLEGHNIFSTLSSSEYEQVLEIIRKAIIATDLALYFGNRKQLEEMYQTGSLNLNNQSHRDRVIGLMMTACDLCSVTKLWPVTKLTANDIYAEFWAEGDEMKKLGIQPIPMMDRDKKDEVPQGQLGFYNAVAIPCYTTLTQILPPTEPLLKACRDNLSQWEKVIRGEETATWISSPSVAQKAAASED
Rat recombinant PDE10a (rPDE10a), sequence (Q9QYJ6 whole entry): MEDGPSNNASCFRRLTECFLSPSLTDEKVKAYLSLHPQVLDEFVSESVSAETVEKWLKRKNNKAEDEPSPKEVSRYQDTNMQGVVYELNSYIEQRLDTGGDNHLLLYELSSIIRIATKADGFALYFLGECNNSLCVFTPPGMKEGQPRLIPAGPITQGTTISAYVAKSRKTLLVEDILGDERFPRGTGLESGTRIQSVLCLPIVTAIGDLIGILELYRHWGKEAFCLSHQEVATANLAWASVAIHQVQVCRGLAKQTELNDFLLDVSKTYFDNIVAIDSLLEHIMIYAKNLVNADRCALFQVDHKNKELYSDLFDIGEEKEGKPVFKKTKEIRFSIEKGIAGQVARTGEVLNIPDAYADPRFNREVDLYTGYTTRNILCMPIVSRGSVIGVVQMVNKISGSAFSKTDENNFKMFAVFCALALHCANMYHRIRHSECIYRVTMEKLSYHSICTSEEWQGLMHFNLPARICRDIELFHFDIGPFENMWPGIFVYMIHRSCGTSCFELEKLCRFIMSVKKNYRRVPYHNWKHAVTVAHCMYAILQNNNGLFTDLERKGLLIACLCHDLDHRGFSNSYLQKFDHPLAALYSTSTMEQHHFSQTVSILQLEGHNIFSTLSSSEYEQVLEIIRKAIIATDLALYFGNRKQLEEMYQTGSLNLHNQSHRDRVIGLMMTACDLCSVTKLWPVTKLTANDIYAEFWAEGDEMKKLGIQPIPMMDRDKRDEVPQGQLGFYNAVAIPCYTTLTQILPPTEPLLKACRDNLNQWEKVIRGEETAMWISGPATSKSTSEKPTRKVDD

As to `O=C(O)CCc1ccc(-c2c([C@H]3C[C@H](c4ccc5ccccc5n4)C3)nc3c(N4CCOCC4)ccnn23)cc1` [compound 169, 3-(4-(8-Morpholino-2-((1r,3r)-3-(quinolin-2-yl)cyclobutyl)imidazo[1,2-b]pyridazin-3-yl)phenyl)propanoic acid], the pIC50 (as a rule, −log10 of the IC50, conventionally taken in molar units) in series [1] was 8.70. In series [2], the “Brain conc 2 h” value was found to be 0 ng/g, the “Plasma conc 2 h” value worked out at 106 ng/mL and the “Ratio Br/Pl Mean 2 h” value is on record as 0.
Turning to `O=C(O)CCc1ccc(-c2c(/C=C/c3ccc4ccccc4n3)nc3c(N4CCOCC4)ccnn23)cn1` [Cpd 125, (E)-3-(5-(8-Morpholino-2-(2-(quinolin-2-yl)vinyl)imidazo[1,2-b]pyridazin-3-yl)pyridin-2-yl)propanoic acid], the pIC50 in series [1] and in series [4] was 8.70 each time. Further, the concentration at 2 h was determined as 0 ng/g in series [3] (brain) and 284 ng/mL in series [3] (plasma). Further, the Kp – broadly, tissue or fluid exposure divided by exposure in the circulation – at 2 h in series [3] was determined as 0.
As for `NS(=O)(=O)N1CCN(c2ccc(-c3c(CSc4ccc5ccccc5n4)nc4c(N5CCOCC5)ccnn34)cn2)CC1` [Cpd 20, 4-(5-(8-Morpholino-2-((quinolin-2-ylthio)methyl)imidazo[1,2-b]pyridazin-3-yl)pyridin-2-yl)piperazine-1-sulfonamide], the pIC50 in series [1] is 7.74; in series [4] it was 8.70. Moreover, the concentration at 2 h in series [3] (brain) is 152 ng/g; in series [3] (plasma), 492 ng/mL. Further, the Kp at 2 h in series [3] worked out at 0.31.
In the same order, the values of `O=C(O)c1ccc(-c2c(/C=C/c3ccc4ccccc4n3)nc3c(N4CCOCC4)ccnn23)cc1` [compound 40, (E)-4-(8-Morpholino-2-(2-(quinolin-2-yl)vinyl)imidazo[1,2-b]pyridazin-3-yl)benzoic acid trifluoroacetic acid salt] are 8.70, 8.70, 0 ng/g, 499 ng/mL and 0.
Taken in the same sequence, the figures for `O=C(O)CCC(=O)Nc1ccc(-c2c(/C=C/c3ccc4ccccc4n3)nc3c(N4CCOCC4)ccnn23)cc1` [compound 48, (E)-4-((4-(8-Morpholino-2-(2-(quinolin-2-yl)vinyl)imidazo[1,2-b]pyridazin-3-yl)phenyl)amino)-4-oxobutanoic acid] were 8.05, 8.22, 0 ng/g, 35 ng/mL and 0.
In the same order, the values of `O=C(O)C1CCN(c2ccc(-c3c(/C=C/c4ccc5ccccc5n4)nc4c(N5CCOCC5)ccnn34)cc2)CC1` [Cpd 100, (E)-1-(4-(8-Morpholino-2-(2-(quinolin-2-yl)vinyl)imidazo[1,2-b]pyridazin-3-yl)phenyl)piperidine-4-carboxylic acid trifluoroacetic acid salt] are 8.52, 8.22, 60.7 ng/g, 2840 ng/mL and 0.02.
Consider `O=C(O)CNc1ccc(-c2c(C#Cc3ccc4ccccc4n3)nc3c(N4CCOCC4)ccnn23)cn1` [Cpd 24, 2-(5-(8-Morpholino-2-(2-(quinolin-2-yl)ethynyl)imidazo[1,2-b]pyridazin-3-yl)pyridin-2-ylamino)acetic acid trifluoroacetic acid salt], for which the pIC50 in series [1] and in series [4] was 9.00 each time. Besides, the concentration at 2 h in series [3] (brain) was 1.35 ng/g; in series [3] (plasma), 5.37 ng/mL. For the same molecule, the Kp at 2 h in series [3] came to 0.2.
As for `O=C(O)CCNC(=O)c1ccc(-c2c(/C=C/c3ccc4ccccc4n3)nc3c(N4CCOCC4)ccnn23)cc1` [compound 44, (E)-3-(4-(8-Morpholino-2-(2-(quinolin-2-yl)vinyl)imidazo[1,2-b]pyridazin-3-yl)benzamido)propanoic acid], the values for the pIC50 in series [1] and in series [4] were 8.40 and 9.00, respectively. In addition, the concentration at 2 h in series [3] (brain) came to 0 ng/g; in series [3] (plasma) it was 83 ng/mL. Further, in series [3], the Kp at 2 h stood at 0.
In the same order, the values of `CS(=O)(=O)NC(=O)c1ccc(-c2c(CCc3ccc4ccccc4n3)nc3c(N4CCOCC4)ccnn23)cc1` [compound 43, N-(Methylsulfonyl)-4-(8-morpholino-2-(2-(quinolin-2-yl)ethyl)imidazo[1,2-b]pyridazin-3-yl)benzamide] are 8.70, 9.00, 0 ng/g, 1.8 ng/mL and 0.
